Molecules are shown by their SMILES. Read-outs that look alike come from different tables or passages of the source.

For data set [1], the system named is U87MG cells. As to the kind of experiment: MTT cell viability, U87MG. The data set is classed as cell-based. To be noted: 24 h; for EC50 / cell death: U87MG; for cell death: screening 0.1-100 µM. The protocol:
(§1) To analyze molecules’ cytotoxicity, U87MG and U87MG-wtEGFR cells were seeded into 96-well plates at a density of 2.5 × 10^4 cells/mL, and after 48 h were incubated with 0.1, 1, 10, or 100 µM of each molecule diluted in (non-supplemented) cell medium for 24 h. The half-maximal effective concentration (EC50) of the most cytotoxic compounds was quantified. Dose–response data were also obtained for treatment with triton X-100 (positive control) and DMSO (vehicle; negative control). The cytotoxicity of selected molecules from initial screening was tested in HBMEC at 100 µM for 24 h. HBMEC were seeded at a density of 8 × 10^4 cell/mL in 96-well plates and after 48 h were incubated with the molecules.
(§2) In screening assays, cell viability was evaluated using thiazolyl blue tetrazolium bromide (MTT). Briefly, a culture medium containing 0.5 mg/mL of MTT was added to each well for 90 min at 37 °C. The supernatant was removed and the formed formazan crystals in viable cells were solubilized with 0.04 N HCl in isopropanol solution. The absorbance was recorded using a microplate reader (Zenyth 3100, Anthos Labtec Instruments, Salzburg, Austria) at 595 nm, and values of cell viability were calculated as percentage of negative control.

Data set [2] deals with U87MG cells. Briefly: Apoptotic cells by nuclear morphology (Hoechst) in U87MG. The data set is classed as cell-based. The following applies: for apoptotic cells: at EC50, 9 h.
Another data set has as its system phospho-EGFR. Briefly: Immunofluorescence of phospho-EGFR in U87MG cells. The data set is classed as cell-based.
Data set [3] has as its system HBMEC. Briefly: MTT cell viability, HBMEC. The following applies: 24 h, 100 µM. The data set is classed as cell-based, human. Here is the method:
as §1, §2

The next data set relates to U87MG-wtEGFR cells. Briefly: MTT cell viability, U87MG-wtEGFR. The data set is classed as cell-based. To be noted: 24 h; for cell death: screening 0.1-100 µM. The protocol: as §1, with “The half-maximal effective concentration (EC50) of the most cytotoxic compounds was quantified.” left out
In screening assays, cell viability was evaluated using thiazolyl blue tetrazolium bromide (MTT). Briefly, a culture medium containing 0.5 mg/mL of MTT was added to each well for 90 min at 37 °C. The supernatant was removed and the formed formazan crystals in viable cells were solubilized with 0.04 N HCl in isopropanol solution.

Data set [4] deals with HBMEC. As to the kind of experiment: HBMEC integrity and morphology (β-catenin, F-actin immunofluorescence). It is filed as cell-based, human. From the text: (§3) HBMEC in coverslips were stained for: the junctional protein β-catenin (1:100, Thermo Fisher Scientific, Waltham, MA, USA, #71-2700), the cytoskeleton protein F-actin (1:1000, Phalloidin dye, Abcam, Cambridge, UK, #ab17675), and the efflux transporter P-gp (1:50, Santa Cruz Biotechnology, Dallas, TX, USA, #sc-390883). HBMEC seeded on polyester inserts for transport assays were also stained for the junctional protein zonula occludens-1 (ZO-1, 1:200, Thermo Fisher Scientific, Waltham, MA, USA, #40-2200) and the cytoskeleton protein vimentin (1:100, Thermo Fisher Scientific, Waltham, MA, USA, #MA3745).
(§4) Incubations with primary antibodies occurred overnight at 4 °C. Incubation with the secondary antibodies Alexa Fluor 555 (1:500, Thermo Fisher Scientific, Waltham, MA, USA, #A21428) or Alexa Fluor 488 (1:500, Thermo Fisher Scientific, Waltham, MA, USA, #A11001) lasted for 1 h at room temperature. Nuclei were counterstained with Hoechst 33342 dye (1:1000, Thermo Fisher Scientific, Waltham, MA, USA, #33342) for 10 min. Before mounting with DPX (Merck Millipore, Burlington, MA, USA), cells were dehydrated with methanol. Negative controls were performed.
(§5) All acquired images were treated in ImageJ (NIH, Bethesda, MD, USA). Assessment of nuclear morphology following Hoechst staining was evaluated. For fluorescence intensity measures, the regions of interest were selected in Image J, and corresponding integrated densities were obtained. The representative 3D plots for BBB integrity were obtained by merged pixel intensity using the surface plot tool of Image J. For F-actin stress fibers analysis, the plot profile tool of Image J was used considering each defined cell-ferret diameter.
For analysis of β-catenin internalization and HBMEC morphological changes, Icy software was used. At least 5 cells per field were delineated and the conveyed values of membrane/interior pixels and roundness (area/perimeter^2) were exported and analyzed. Taking advantage of membrane staining (β-catenin), the BBB’s integrity was also analyzed by quantifying the total area of intercellular gaps in the HBMEC monolayer.

The subject of a further data set is phospho-AKT. Briefly: Immunofluorescence of phospho-AKT in U87MG cells. It is filed as cell-based. The following applies: at EC50, after 6 h exposure.
The next data set relates to P-gp. Briefly: P-gp expression in HBMEC (immunofluorescence). To be noted: U87MG EC50, 9 h. The data set is classed as cell-based, human.
Text: as §3, §4, §5

In data set [5] the test system is patient-derived cell lines. More on the design: method as in PMID 34794398. To be noted: 72 h, read-out: median IC50; cited from earlier work.
The subject of a further data set is U87 cells. More on the design: method as in PMID 34794398. To be noted: depending on the incubation time; cited from earlier work.
The conditions of data set [6]: several cell-based studies; cited from earlier work.

In general, EC50 refers to the concentration at which the effect is half-maximal. As to `C=CC(=O)Nc1cc2c(Nc3ccc(F)c(Cl)c3)ncnc2cc1OCCCN1CCOCC1` [Mol 25, canertinib, reference compound], in the data set with U87MG cells [1] (Homo sapiens, U-87 MG, 100 µM, GB cell line not given, read-out: viable cells), the viability at 100 µM is about 0%. The EC50 in the data set with U87MG cells [1] (Homo sapiens, U-87 MG) came out at 16.3 ± 2.26 µM; with U87MG-wtEGFR cells, 11.3 ± 2.15 µM. The cell death in the data set with U87MG cells [1] is given as at least 50%; with U87MG-wtEGFR cells (U87MG-wtEGFR, MTT), at least 50%. The apoptotic cells with U87MG cells [2] is reported as about 85%. Besides, the “reduction of mean intensity of phosphorylated EGFR” value in the data set on phospho-EGFR (at EC50, 9 h) was found to be 92.6%. In addition, the “inhibition of phospho-EGFR expression” value with phospho-EGFR (at EC50, after 6 h exposure) is listed as over 50%. In addition, the “impairment of HBMEC cell viability” value with HBMEC [3] (human) is on record as about 100%. In the data set on HBMEC [4] (human, 9 h), the HBMEC detachment turned out to be 100%. Further, the “inhibition of phospho-AKT expression” value in the data set on phospho-AKT was over 50%.

Take `Brc1ccc(Nc2ncnc3ccccc23)cc1` [Mol 17]: in the data set on U87MG cells [1] (Homo sapiens, U-87 MG), the midpoint of the response, the EC50, lay at 129 ± 14.5 µM. The cell death with U87MG cells [1] is at least 50%. This molecule registered an apoptotic cells in the data set on U87MG cells [2] of about 40%. For the same molecule, the “phospho-EGFR expression, of that observed in control” value in the data set with phospho-EGFR (at EC50, 9 h) is given as “about 30%”. In the data set with HBMEC [3] (human), the “impairment of HBMEC cell viability” value is “about 65%”. In addition, the EC50 in the data set on U87MG-wtEGFR cells (U87MG-wtEGFR, MTT, read-out: EC50) turned out to be 50.4 ± 5.21 µM. Besides, the cell death with U87MG-wtEGFR cells (U87MG-wtEGFR, MTT) is reported as at least 50%. In the data set with P-gp, the “P-gp expression (mean intensity) in HBMEC” value is “significant increase in P-gp mean intensity”. Further, in the data set with HBMEC [4] (human, 9 h), the “F-actin stress fibers per cell” value is listed as “highly increased the number of stress fibers/cell”; the “HBMEC shape (roundness)” value is recorded as “increased cell roundness”; the “disrupted barrier integrity (endothelial gaps), of control” value was determined as 78%; the “β-catenin expression and location” value is “irregular and discontinuous appearance”.

As a reminder, the IC50 is the concentration at which inhibition is half-maximal. On to `Cn1nnc2c(C(N)=O)ncn2c1=O` [TMZ, temozolomide], for which the values for the IC50 (in data set [5]; in the data set on U87 cells) were 800 µM and 124 to 230 µM, respectively. Further, the “doses at which more than 50% cytotoxicity was seen” value in data set [6] is reported as “up to 4000 µM”.

As for `C=CC(=O)Nc1ccc2ncnc(Nc3cccc(Br)c3)c2c1` [Mol 27], the EC50 with U87MG cells [1] (Homo sapiens, U-87 MG) worked out at 22.7 ± 2.22 µM. In the data set on U87MG cells [1], this molecule returned a cell death of at least 50%. The molecule also came in with an apoptotic cell death in the data set on U87MG cells [2] (at EC50, 6 h) of 12.8%. The molecule further came in with an apoptotic cells with U87MG cells [2] of 31.9%. Further, in the data set with HBMEC [3] (MTT), the “impairment of HBMEC cell viability” value is recorded as about 58%. Besides, the “P-gp expression (mean intensity) in HBMEC” value in the data set on P-gp was “significant increase in P-gp mean intensity”. In the data set with HBMEC [4] (HBMEC, U87MG EC50, 9 h), the “F-actin stress fibers per cell” value is given as “highly increased the number of stress fibers/cell”; the “HBMEC shape (roundness)” value was “increased cell roundness”; the “β-catenin expression and location” value was “irregular and discontinuous appearance”. For the same molecule, the “disrupted barrier integrity (endothelial gaps), of control” value in the data set on HBMEC [4] (HBMEC, U87MG EC50, 9 h, β-catenin staining) is recorded as 82%. The “inhibition of phospho-AKT expression” value in the data set on phospho-AKT is over 50%.

The values are drawn from article PMC9317902, “Multi-Targeting Approach in Glioblastoma Using Computer-Assisted Drug Discovery Tools to Overcome the Blood–Brain Barrier and Target EGFR/PI3Kp110β Signaling” (Cancers, 2022).
